According to patent publication US20240182531A1, “KV1.3 Blockers” (priority 2021, published 2024):
Where two headings read alike, the source gives them in different places. Where a SMILES comes first, the peptide text is derived from it. Bridges are numbered along the chain shown (N, C = ends). [ ]: non-standard residue; d: D form. Nle = CCCC[C@H](N)C(=O)O

Legend:
human Kv1.6 = target: T1, human Kv1.6 (Homo sapiens, UniProt P17658); assay: cell-based
T1 construct: expressed in transfected cells; host or cells: CHO

human Kv1.2 = target: T2, human Kv1.2 (Homo sapiens, UniProt P16389); assay: cell-based
T2 construct: expressed in transfected cells; host or cells: CHO

[1] = system: Human peripheral blood mononuclear cells (PBMCs); assay type: cell-based; conditions: geometric mean, at least 4 replicates, Example 5a; for IC50: read-out: anti-CD3 PBMC/IL-2 IC50
Protocol: Human peripheral blood mononuclear cells (PBMCs) were used to assess the effects of Kv1.3 blocker reference compounds on T-cell activation as determined by IL-2 (cytokine) release after stimulation with anti-CD3.
Human PBMCs were obtained from Precision for Medicine (Frederick, MD). Cells from 5 donors were used. Plate-bound anti-CD3 was used to stimulate bulk T cells in the PBMC preparations. Briefly, 96-well plates were coated with anti-CD3 antibody for 2 hrs at 37° C., using 50 μL of a 0.5 μg/mL anti-CD3 solution diluted in 1×PBS. Thereafter the plates were washed twice.
Kv1.3 blockers as shown in Table 8a were diluted in medium (RPMI 1640 with Glutamax-I containing 10% v/v Fetal Bovine Serum, 1% v/v penicillin-streptomycin solution) and added in a volume of 100 μL at concentrations ranging from 0.01 pM to 100 nM (tenfold dilutions). […] Finally, 1×10^5 PBMCs were added to each well in a volume of 100 μL, giving a final volume of 200 μL per well. The plates were incubated for 20-24 hours in a 37 °C/5% CO2 incubator. After centrifugation of the plates, 25 μl supernatant was transferred to IL-2 detection plates (MSD Human IL-2 Tissue Culture Kit, cat #K151AHB-2) and IL-2 was measures as described by the manufacturer (Meso Scale Discovery, Rockville, Maryland, USA).
Results are shown in Table 8a as geometric mean of IC50 values obtained from anti-CD3 stimulated human PBMC assays. All values derive from at least 4 replicates.

human Kv1.1 = target: T3, human Kv1.1 (Homo sapiens, UniProt Q09470); assay: cell-based
T3 construct: expressed in transfected cells; host or cells: CHO

Rat whole blood = Rat whole blood (Rattus norvegicus, UniProt P15384); assay type: cell-based; conditions: IL-17A release, thapsigargin, 24 Hr, at least 2 replicates
[2] = ratio of patch clamp IC50 values

T2 sequence (P16389 whole entry): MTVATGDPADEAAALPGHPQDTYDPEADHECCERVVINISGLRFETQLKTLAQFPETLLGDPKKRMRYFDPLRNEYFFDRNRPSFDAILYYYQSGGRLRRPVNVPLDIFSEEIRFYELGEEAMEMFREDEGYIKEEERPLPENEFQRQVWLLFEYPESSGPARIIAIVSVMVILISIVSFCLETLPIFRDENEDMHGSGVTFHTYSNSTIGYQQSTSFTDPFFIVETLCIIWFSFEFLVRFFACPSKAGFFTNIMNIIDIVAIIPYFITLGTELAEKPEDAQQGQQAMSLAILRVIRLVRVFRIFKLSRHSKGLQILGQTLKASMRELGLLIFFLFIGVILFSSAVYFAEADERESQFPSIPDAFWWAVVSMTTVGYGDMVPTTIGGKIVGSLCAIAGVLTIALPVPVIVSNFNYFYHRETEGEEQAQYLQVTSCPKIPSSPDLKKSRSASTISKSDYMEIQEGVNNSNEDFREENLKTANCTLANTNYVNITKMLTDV
T1 sequence (P17658 whole entry): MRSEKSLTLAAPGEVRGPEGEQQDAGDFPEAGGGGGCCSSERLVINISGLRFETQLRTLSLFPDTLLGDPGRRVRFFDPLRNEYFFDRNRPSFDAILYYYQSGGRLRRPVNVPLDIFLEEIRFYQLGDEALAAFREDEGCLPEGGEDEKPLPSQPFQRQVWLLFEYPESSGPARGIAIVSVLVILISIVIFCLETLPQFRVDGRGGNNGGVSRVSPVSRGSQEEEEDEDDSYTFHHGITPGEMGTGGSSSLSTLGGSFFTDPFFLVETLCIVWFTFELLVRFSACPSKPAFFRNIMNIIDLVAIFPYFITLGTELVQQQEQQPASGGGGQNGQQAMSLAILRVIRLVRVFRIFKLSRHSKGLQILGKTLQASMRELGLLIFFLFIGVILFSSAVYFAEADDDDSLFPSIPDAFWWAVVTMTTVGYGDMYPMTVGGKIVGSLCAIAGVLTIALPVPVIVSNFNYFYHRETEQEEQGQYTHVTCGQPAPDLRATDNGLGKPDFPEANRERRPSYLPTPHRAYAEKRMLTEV
T3 sequence (Q09470 whole entry): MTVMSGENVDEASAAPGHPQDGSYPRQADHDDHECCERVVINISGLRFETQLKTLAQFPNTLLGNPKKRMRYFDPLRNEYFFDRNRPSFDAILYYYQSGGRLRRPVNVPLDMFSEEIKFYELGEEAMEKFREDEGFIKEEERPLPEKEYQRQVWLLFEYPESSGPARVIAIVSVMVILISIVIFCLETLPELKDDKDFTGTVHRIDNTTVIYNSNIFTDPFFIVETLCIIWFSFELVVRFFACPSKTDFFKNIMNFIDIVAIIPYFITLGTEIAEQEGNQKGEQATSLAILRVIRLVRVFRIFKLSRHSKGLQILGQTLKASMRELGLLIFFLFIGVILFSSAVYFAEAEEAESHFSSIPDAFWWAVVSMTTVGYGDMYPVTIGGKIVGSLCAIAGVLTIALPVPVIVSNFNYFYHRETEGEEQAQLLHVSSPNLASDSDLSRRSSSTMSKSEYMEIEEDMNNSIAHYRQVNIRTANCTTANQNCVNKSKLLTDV
Rat whole blood, sequence (P15384 whole entry): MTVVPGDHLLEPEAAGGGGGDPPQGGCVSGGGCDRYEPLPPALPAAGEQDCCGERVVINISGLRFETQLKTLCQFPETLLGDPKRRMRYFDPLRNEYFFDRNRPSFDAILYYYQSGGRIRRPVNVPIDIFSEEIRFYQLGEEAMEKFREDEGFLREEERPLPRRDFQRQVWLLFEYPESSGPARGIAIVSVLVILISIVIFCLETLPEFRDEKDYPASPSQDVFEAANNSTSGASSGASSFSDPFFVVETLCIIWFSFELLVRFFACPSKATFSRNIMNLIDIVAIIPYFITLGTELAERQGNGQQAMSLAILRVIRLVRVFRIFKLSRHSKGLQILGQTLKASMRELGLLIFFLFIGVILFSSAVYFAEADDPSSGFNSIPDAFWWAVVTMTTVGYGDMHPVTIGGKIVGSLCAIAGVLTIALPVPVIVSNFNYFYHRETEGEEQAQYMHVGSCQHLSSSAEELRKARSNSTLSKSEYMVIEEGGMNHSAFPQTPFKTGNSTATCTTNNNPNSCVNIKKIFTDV

Row | Structure (SMILES) | Selectivity ratio Kv1.6/Kv1.3 (human Kv1.6) | Selectivity ratio Kv1.2/Kv1.3 (human Kv1.2) | anti-CD3 PBMC/IL-2 IC50 [1] | Selectivity ratio Kv1.1/Kv1.3 (human Kv1.1) | Selectivity ratio Kv1.6/Kv1.3 (human Kv1.6; [2]) | Selectivity ratio Kv1.2/Kv1.3 (human Kv1.2; [2]) | IC50 [1] [pM] | Selectivity ratio Kv1.1/Kv1.3 (human Kv1.1; [2]) | IC50 (Rat whole blood) [pM]
1 | CC[C@H](C)[C@H](N)C(=O)N[C@@H](CC(N)=O)C(=O)N[C@H](C(=O)N[C@@H](CCCCN)C(=O)N[C@H]1CSSC[C@@H]2NC(=O)[C@H](CCCCN)NC(=O)CNC(=O)[C@H](Cc3ccccc3)NC(=O)[C@H](CCCNC(=N)N)NC(=O)[C@H](CCSC)NC(=O)CNC(=O)[C@H](C)NC(=O)[C@H](CC(=O)O)NC(=O)[C@H](CCCCN)NC(=O)[C@@H]3CSSC[C@@H](C(=O)N[C@@H](Cc4ccc(O)cc4)C(=O)N[C@@H](CO)C(=O)O)NC(=O)[C@H](CCCNC(=N)N)NC(=O)[C@H](CSSC[C@H](NC(=O)[C@H](CCC(N)=O)NC(=O)[C@H](CCC(N)=O)NC(=O)[C@@H]4CCCN4C(=O)[C@H](CC(C)C)NC(=O)[C@H](CO)NC1=O)C(=O)N[C@@H]([C@@H](C)CC)C(=O)N[C@@H](CCCCN)C(=O)N1CCC[C@H]1C(=O)N3)NC(=O)[C@H](CCCCN)NC(=O)[C@H](CCCCN)NC(=O)[C@H](CC(N)=O)NC(=O)[C@H](CCSC)NC2=O)C(C)C [Moka1] | >300 | 31 | less potent in inhibiting IL-2 secretion | >300 |  |  |  |  | 
2 | CCCC[C@@H]1NC(=O)[C@@H]2CSSC[C@H](NC(=O)[C@H](CCCNC(=N)N)NC(=O)[C@H](CCSC)NC(=O)[C@H](CC(=O)O)NC(=O)[C@H](CCSC)NC(=O)[C@@H](N)CC(N)=O)C(=O)N[C@@H](CO)C(=O)N[C@@H](C)C(=O)N[C@@H](CO)C(=O)N[C@@H](C(C)C)C(=O)N[C@@H](CCC(=O)O)C(=O)N[C@H]3CSSC[C@H](NC(=O)[C@H](CCCCN)NC(=O)[C@H](CCCCN)NC(=O)[C@H](CC(N)=O)NC1=O)C(=O)N[C@@H](CCCCN)C(=O)N[C@H](C(=O)N[C@@H](Cc1ccc(O)cc1)C(=O)N1CCC[C@H]1C(=O)N[C@@H](CCCNC(=N)N)C(N)=O)CSSC[C@H](NC(=O)[C@H](CCCCN)NC(=O)[C@H](CCC(N)=O)NC(=O)[C@H](CCCCN)NC3=O)C(=O)N[C@@H](CC(C)C)C(=O)N[C@@H](CCCCN)C(=O)N[C@@H](C)C(=O)N[C@@H]([C@@H](C)CC)C(=O)NCC(=O)N[C@@H](CO)C(=O)N[C@@H]([C@@H](C)CC)C(=O)N[C@@H](Cc1ccccc1)C(=O)NCC(=O)N[C@@H](CCCCN)C(=O)N2 [compound 21] (H-NMDMRCSASVECKQKCLKAIGSIFGKC[Nle]NKKCKCYPR-NH2; disulfide 6-27, 12-32, 16-34) |  |  |  |  | 10360 | 561 | 50 | >12600 | 
3 | CC[C@H](C)[C@@H]1NC(=O)[C@H](C)NC(=O)[C@H](CCCCN)NC(=O)[C@H](CC(C)C)NC(=O)[C@@H]2CSSC[C@@H](C(=O)N[C@@H](Cc3ccc(O)cc3)C(=O)N3CCC[C@H]3C(=O)N[C@@H](CCCNC(=N)N)C(N)=O)NC(=O)[C@H](CCCCN)NC(=O)[C@@H]3CSSC[C@H](NC(=O)[C@H](CCC(=O)O)NC(=O)[C@H](C(C)C)NC(=O)[C@H](CO)NC(=O)[C@H](C)NC(=O)[C@H](CO)NC(=O)[C@@H](NC(=O)[C@H](CCCNC(=N)N)NC(=O)[C@H](CCSC)NC(=O)[C@H](CC(=O)O)NC(=O)[C@H](CCSC)NC(=O)[C@@H](N)CC(N)=O)CSSC[C@H](NC(=O)[C@H](CCCCN)NC(=O)CNC(=O)[C@H](Cc4ccccc4)NC(=O)[C@H]([C@@H](C)CC)NC(=O)[C@H](CO)NC(=O)CNC1=O)C(=O)N[C@@H](CCSC)C(=O)N[C@@H](CC(N)=O)C(=O)N[C@@H](CCCCN)C(=O)N[C@@H](CCCCN)C(=O)N3)C(=O)N[C@@H](CCCCN)C(=O)N[C@@H](C(C)C)C(=O)N[C@@H](CCCCN)C(=O)N2 [compound 22] (H-NMDMRCSASVECKVKCLKAIGSIFGKCMNKKCKCYPR-NH2; disulfide 6-27, 12-32, 16-34) |  |  |  |  | 2182 | 159 | 400 | >7200 | 880
4 | CC[C@H](C)[C@@H]1NC(=O)[C@H](C)NC(=O)[C@H](CC(=O)O)NC(=O)[C@H](CC(C)C)NC(=O)[C@@H]2CSSC[C@@H](C(=O)N[C@@H](Cc3ccc(O)cc3)C(=O)N3CCC[C@H]3C(=O)N[C@@H](CCCNC(=N)N)C(N)=O)NC(=O)[C@H](CCCCN)NC(=O)[C@@H]3CSSC[C@H](NC(=O)[C@H](CCC(=O)O)NC(=O)[C@H](C(C)C)NC(=O)[C@H](CO)NC(=O)[C@H](C)NC(=O)[C@H](CO)NC(=O)[C@@H](NC(=O)[C@H](CCCNC(=N)N)NC(=O)[C@H](CCSC)NC(=O)[C@H](CC(=O)O)NC(=O)[C@H](CCSC)NC(=O)[C@@H](N)CC(N)=O)CSSC[C@H](NC(=O)[C@H](CCCCN)NC(=O)CNC(=O)[C@H](Cc4ccccc4)NC(=O)[C@H]([C@@H](C)CC)NC(=O)[C@H](CO)NC(=O)CNC1=O)C(=O)N[C@@H](CCSC)C(=O)N[C@@H](CC(N)=O)C(=O)N[C@@H](CCCCN)C(=O)N[C@@H](CCCCN)C(=O)N3)C(=O)N[C@@H](CCCCN)C(=O)N[C@@H](CCC(N)=O)C(=O)N[C@@H](CCCCN)C(=O)N2 [compound 25] (H-NMDMRCSASVECKQKCLDAIGSIFGKCMNKKCKCYPR-NH2; disulfide 6-27, 12-32, 16-34) |  |  |  |  | 12045 | 471 | 100 | >14300 | 1200
5 | CC[C@H](C)[C@@H]1NC(=O)[C@H](C)NC(=O)[C@H](CCCCN)NC(=O)[C@H](CC(C)C)NC(=O)[C@@H]2CSSC[C@@H](C(=O)N[C@@H](Cc3ccc(O)cc3)C(=O)N3CCC[C@H]3C(=O)N[C@@H](CCCNC(=N)N)C(N)=O)NC(=O)[C@H](CCCCN)NC(=O)[C@@H]3CSSC[C@H](NC(=O)[C@H](CCC(=O)O)NC(=O)[C@H](C(C)C)NC(=O)[C@H](CO)NC(=O)[C@H](C)NC(=O)[C@H](CO)NC(=O)[C@@H](NC(=O)[C@H](CCCNC(=N)N)NC(=O)[C@H](CCSC)NC(=O)[C@H](CC(=O)O)NC(=O)[C@H](CCSC)NC(=O)[C@@H](N)CC(N)=O)CSSC[C@H](NC(=O)[C@H](CCCCN)NC(=O)CNC(=O)[C@H](Cc4ccccc4)NC(=O)[C@H](CCCNC(=N)N)NC(=O)[C@H](CO)NC(=O)CNC1=O)C(=O)N[C@@H](CCSC)C(=O)N[C@@H](CC(N)=O)C(=O)N[C@@H](CCCCN)C(=O)N[C@@H](CCCCN)C(=O)N3)C(=O)N[C@@H](CCCCN)C(=O)N[C@@H](CCC(N)=O)C(=O)N[C@@H](CCCCN)C(=O)N2 [compound 39] (H-NMDMRCSASVECKQKCLKAIGSRFGKCMNKKCKCYPR-NH2; disulfide 6-27, 12-32, 16-34) |  |  |  |  | 963 | 88 | 100 | >15000 | 2500
